Measured values published in the supplement of paper PMC11208160.

assay: recombinant UMI read abundance after kanamycin selection (control-corrected) (log10(CPM+1)); higher = more efficient recombination; extreme values may be limits of the assay; sequences stand for … in AGTGCAGAGAAAATCGGCCAGTTTTCTCTGCCTGCAGTCCGCATGCCGTGGGACCCCTTGGGTTCTAACCTGTTGCCTAGATTTATGCAGCGGACTGCCTTTCTCCCAAAGTGATAAACCGG…AGGTTGGTTTCACT; site = the 11-nt donor
Summary of the method: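 The measure is log10(CPM+1) for recombinant UMIs. These were PCR-amplified across the donor–target junction and sequenced after Escherichia coli carrying a donor and donor-binding-loop pair library and a target plasmid with T7-inducible IS621 bridge recombinase was plated on IPTG (0.07 mM) plus kanamycin or unselected. CPM were averaged over two replicates and scaled by control-derived factors.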
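Further: IS621 bridge recombinase in Escherichia coli cells against a fixed T5 target plasmid.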

With “CCGGATCCATGGACCGGTTTTCCCGGTAATCCGTATTTGTT (site CGGAATCCTAA)” as the sequence, how does the “recombinant UMI read abundance (log10)” value read?
The value was 0.00344.

For “CCGGCTACATGGACCGGTTTTCCCGGTAATCCGTATTTGAT (site CCGGCTACTAT)”, which “recombinant UMI read abundance (log10)” value is on record?
Its value is 1.37.

Which “recombinant UMI read abundance (log10)” value does the source give for “CCGGGGCCATGGACCGGTTTTCCCGGTAATCCGTATTTGAT (site CCGGGGCCTAT)” here?
The value was 0.04.

Which “recombinant UMI read abundance (log10)” value does the source give for “CCGGGTGCATGGACCGGTTTTCCCGGTAATCCGTATTTGAT (site CCAGGTGCTAT)” here?
Its value is 1.63.

Which “recombinant UMI read abundance (log10)” value does the source give for “CCGGGTGCATGGACCGGTTTTCCCGGTAATCCGTATTTGAT (site CCCGGTGCTAT)” here?
The value was 0.797.

Which “recombinant UMI read abundance (log10)” value does the source give for “CCGGGTGCATGGACCGGTTTTCCCGGTAATCCGTATTTGAT (site CCGGGTGCTAT)” here?
Its value is 1.25.

With “CCGGGTGCATGGACCGGTTTTCCCGGTAATCCGTATTTGAT (site CCTGGTGCTAT)” as the sequence, how does the “recombinant UMI read abundance (log10)” value read?
The value was 0.428.

For “CCGGGTTCATGGACCGGTTTTCCCGGTAATCCGTATTTGGC (site CCGGGTTCTGC)”, which “recombinant UMI read abundance (log10)” value is on record?
Its value is 1.57.

Which “recombinant UMI read abundance (log10)” value does the source give for “CCGTCAACATGGACCGGTTTTCCCGGTAATCCGTATTTGCT (site CCGTCAACTAG)” here?
Its value is 0.

For “CCGTCGCCATGGACCGGTTTTCCCGGTAATCCGTATTTGTC (site CCGTCGCCTGA)”, which “recombinant UMI read abundance (log10)” value is on record?
The value was 0.

With “CCGTTACCATGGACCGGTTTTCCCGGTAATCCGTATTTGAG (site CCGTTACCTCT)” as the sequence, how does the “recombinant UMI read abundance (log10)” value read?
The value was 0.0156.

For “CCGTTAGCATGGACCGGTTTTCCCGGTAATCCGTATTTGAG (site CCGTTAGCTCA)”, which “recombinant UMI read abundance (log10)” value is on record?
The value was 0.0714.

For “CCGTTAGCATGGACCGGTTTTCCCGGTAATCCGTATTTGAG (site CCGTTAGCTCC)”, which “recombinant UMI read abundance (log10)” value is on record?
The value was 0.006.

For “CCGTTAGCATGGACCGGTTTTCCCGGTAATCCGTATTTGAG (site CCGTTAGCTCG)”, which “recombinant UMI read abundance (log10)” value is on record?
Its value is 0.00749.

Which “recombinant UMI read abundance (log10)” value does the source give for “CCGTTAGCATGGACCGGTTTTCCCGGTAATCCGTATTTGAG (site CCGTTAGCTCT)” here?
The value was 0.692.

Which “recombinant UMI read abundance (log10)” value does the source give for “CCGTTCGCATGGACCGGTTTTCCCGGTAATCCGTATTTGTG (site CCGTTAGCTCA)” here?
Its value is 0.00765.

With “CCGTTCGCATGGACCGGTTTTCCCGGTAATCCGTATTTGTG (site CCGTTCGCTCA)” as the sequence, how does the “recombinant UMI read abundance (log10)” value read?
Its value is 0.0261.

With “CCGTTCGCATGGACCGGTTTTCCCGGTAATCCGTATTTGTG (site CCGTTGGCTCA)” as the sequence, how does the “recombinant UMI read abundance (log10)” value read?
The value was 0.0144.

For “CCGTTCGCATGGACCGGTTTTCCCGGTAATCCGTATTTGTG (site CCGTTTGCTCA)”, which “recombinant UMI read abundance (log10)” value is on record?
The value was 0.00651.

For “CCGTTGGCATGGACCGGTTTTCCCGGTAATCCGTATTTGTG (site CCGTTAGCTCA)”, which “recombinant UMI read abundance (log10)” value is on record?
Its value is 0.661.

Which “recombinant UMI read abundance (log10)” value does the source give for “CCGTTGGCATGGACCGGTTTTCCCGGTAATCCGTATTTGTG (site CCGTTCGCTCA)” here?
The value was 0.0171.

With “CCGTTGGCATGGACCGGTTTTCCCGGTAATCCGTATTTGTG (site CCGTTGGCTCA)” as the sequence, how does the “recombinant UMI read abundance (log10)” value read?
The value was 0.286.

For “CCGTTGGCATGGACCGGTTTTCCCGGTAATCCGTATTTGTG (site CCGTTTGCTCA)”, which “recombinant UMI read abundance (log10)” value is on record?
Its value is 0.00375.

With “CCGTTGTCATGGACCGGTTTTCCCGGTAATCCGTATTTGTC (site CCGTTGTCTGA)” as the sequence, how does the “recombinant UMI read abundance (log10)” value read?
Its value is 0.

Which “recombinant UMI read abundance (log10)” value does the source give for “CCGTTTACATGGACCGGTTTTCCCGGTAATCCGTATTTGAT (site CCGTTTACTAA)” here?
The value was 0.0556.

For “CCGTTTACATGGACCGGTTTTCCCGGTAATCCGTATTTGAT (site CCGTTTACTAC)”, which “recombinant UMI read abundance (log10)” value is on record?
Its value is 0.

With “CCGTTTACATGGACCGGTTTTCCCGGTAATCCGTATTTGAT (site CCGTTTACTAG)” as the sequence, how does the “recombinant UMI read abundance (log10)” value read?
Its value is 0.

For “CCGTTTACATGGACCGGTTTTCCCGGTAATCCGTATTTGAT (site CCGTTTACTAT)”, which “recombinant UMI read abundance (log10)” value is on record?
The value was 0.

With “CCTAAAGCATGGACCGGTTTTCCCGGTAATCCGTATTTGAA (site CCTAAAGCTAT)” as the sequence, how does the “recombinant UMI read abundance (log10)” value read?
Its value is 0.

Which “recombinant UMI read abundance (log10)” value does the source give for “CCTAAAGCATGGACCGGTTTTCCCGGTAATCCGTATTTGAA (site CCTAAAGCTCT)” here?
Its value is 0.00343.

With “CCTAAAGCATGGACCGGTTTTCCCGGTAATCCGTATTTGAA (site CCTAAAGCTGT)” as the sequence, how does the “recombinant UMI read abundance (log10)” value read?
Its value is 0.

Which “recombinant UMI read abundance (log10)” value does the source give for “CCTAAAGCATGGACCGGTTTTCCCGGTAATCCGTATTTGAA (site CCTAAAGCTTT)” here?
Its value is 0.699.

Which “recombinant UMI read abundance (log10)” value does the source give for “CCTAAAGCATGGACCGGTTTTCCCGGTAATCCGTATTTGTT (site CCTAAAGCTAA)” here?
Its value is 0.0032.

For “CCTAAAGCATGGACCGGTTTTCCCGGTAATCCGTATTTGTT (site CCTAAAGCTAC)”, which “recombinant UMI read abundance (log10)” value is on record?
Its value is 0.

With “CCTAAAGCATGGACCGGTTTTCCCGGTAATCCGTATTTGTT (site CCTAAAGCTAG)” as the sequence, how does the “recombinant UMI read abundance (log10)” value read?
Its value is 0.

Which “recombinant UMI read abundance (log10)” value does the source give for “CCTAAAGCATGGACCGGTTTTCCCGGTAATCCGTATTTGTT (site CCTAAAGCTAT)” here?
The value was 0.00347.

For “CCTAACACATGGACCGGTTTTCCCGGTAATCCGTATTTGGC (site CCTAAAACTGC)”, which “recombinant UMI read abundance (log10)” value is on record?
Its value is 0.

Which “recombinant UMI read abundance (log10)” value does the source give for “CCTAACACATGGACCGGTTTTCCCGGTAATCCGTATTTGGC (site CCTAACACTGC)” here?
Its value is 0.

For “CCTAACACATGGACCGGTTTTCCCGGTAATCCGTATTTGGC (site CCTAAGACTGC)”, which “recombinant UMI read abundance (log10)” value is on record?
The value was 0.

Which “recombinant UMI read abundance (log10)” value does the source give for “CCTAACACATGGACCGGTTTTCCCGGTAATCCGTATTTGGC (site CCTAATACTGC)” here?
Its value is 0.

With “CCTAACGCATGGACCGGTTTTCCCGGTAATCCGTATTTGAT (site CCTAAAGCTAT)” as the sequence, how does the “recombinant UMI read abundance (log10)” value read?
The value was 0.

Which “recombinant UMI read abundance (log10)” value does the source give for “CCTAACGCATGGACCGGTTTTCCCGGTAATCCGTATTTGAT (site CCTAACGCTAT)” here?
The value was 0.

Which “recombinant UMI read abundance (log10)” value does the source give for “CCTAACGCATGGACCGGTTTTCCCGGTAATCCGTATTTGAT (site CCTAAGGCTAT)” here?
Its value is 0.

For “CCTAACGCATGGACCGGTTTTCCCGGTAATCCGTATTTGAT (site CCTAATGCTAT)”, which “recombinant UMI read abundance (log10)” value is on record?
The value was 0.

With “CCTAATCCATGGACCGGTTTTCCCGGTAATCCGTATTTGGC (site CCTAATACTGC)” as the sequence, how does the “recombinant UMI read abundance (log10)” value read?
The value was 0.

Which “recombinant UMI read abundance (log10)” value does the source give for “CCTAATCCATGGACCGGTTTTCCCGGTAATCCGTATTTGGC (site CCTAATCCTGC)” here?
Its value is 0.

For “CCTAATCCATGGACCGGTTTTCCCGGTAATCCGTATTTGGC (site CCTAATGCTGC)”, which “recombinant UMI read abundance (log10)” value is on record?
The value was 0.

For “CCTAATCCATGGACCGGTTTTCCCGGTAATCCGTATTTGGC (site CCTAATTCTGC)”, which “recombinant UMI read abundance (log10)” value is on record?
Its value is 0.

Which “recombinant UMI read abundance (log10)” value does the source give for “CCTACAACATGGACCGGTTTTCCCGGTAATCCGTATTTGAA (site CCTACAACTTT)” here?
The value was 0.0165.

Which “recombinant UMI read abundance (log10)” value does the source give for “CCTACTACATGGACCGGTTTTCCCGGTAATCCGTATTTGGC (site CCTAATACTGC)” here?
Its value is 0.

With “CCTACTACATGGACCGGTTTTCCCGGTAATCCGTATTTGGC (site CCTACTACTGC)” as the sequence, how does the “recombinant UMI read abundance (log10)” value read?
The value was 0.

For “CCTACTACATGGACCGGTTTTCCCGGTAATCCGTATTTGGC (site CCTAGTACTGC)”, which “recombinant UMI read abundance (log10)” value is on record?
The value was 0.

With “CCTACTACATGGACCGGTTTTCCCGGTAATCCGTATTTGGC (site CCTATTACTGC)” as the sequence, how does the “recombinant UMI read abundance (log10)” value read?
The value was 0.

With “CCTACTTCATGGACCGGTTTTCCCGGTAATCCGTATTTGAT (site CCTACTTCTAT)” as the sequence, how does the “recombinant UMI read abundance (log10)” value read?
The value was 0.

With “CCTATACCATGGACCGGTTTTCCCGGTAATCCGTATTTGCG (site CCTATACCTCG)” as the sequence, how does the “recombinant UMI read abundance (log10)” value read?
The value was 0.0152.

For “CCTATAGCATGGACCGGTTTTCCCGGTAATCCGTATTTGAT (site CCTAAAGCTAT)”, which “recombinant UMI read abundance (log10)” value is on record?
The value was 0.

For “CCTATAGCATGGACCGGTTTTCCCGGTAATCCGTATTTGAT (site CCTACAGCTAT)”, which “recombinant UMI read abundance (log10)” value is on record?
The value was 0.
